Test results as given in US20060089352A1, “Substituted thiazines as material protecting agents” (priority 2002, published 2006).

How the values were obtained:
Type in all cases: cell-based
[1] = tested on: Penicillium brevicaule; assay: Minimum inhibitory concentration (MIC) on malt extract agar; settings: 2 weeks incubation at 28° C., 60 to 70% relative atmospheric humidity
Method: (§1) The MIC was determined after 2 weeks of incubation at 28° C. and 60 to 70% relative atmospheric humidity. The MIC is the lowest concentration of active compound at which there is no colonization by the microbial species used; it is indicated in Table 2.

[2] = tested on: Chaetomium globosum; assay: as above; settings: 2 weeks incubation at 28° C., 60 to 70% relative atmospheric humidity
Method: as §1

[3] = tested on: Aspergillus niger; assay: as above; settings: 2 weeks incubation at 28° C., 60 to 70% relative atmospheric humidity
Method: as §1

[4] = tested on: mold fungi (Alternaria tenuis, Aspergillus flavus, Aspergillus niger, Aspergillus ustus, Cindosporum herbarum, Paecilomyces variotii, Penicillium citrium …); assay: Test of dispersion coatings for resistance to mold; settings: coatings according to recipe A containing 1.5% (based on solids) of compound; even after rinsing out and wind tunnel exposure; 2-3 weeks storage, 29±1° C., 80-90% rel. humidity
Method: To test dispersion coatings for resistance to mold, the following procedure was adopted:
The paint to be tested was applied to both sides of a suitable base. To obtain results which are close to practice, some of the test specimens were rinsed out with running water (24 h, 20° C.) before the test for mold resistance; others were treated with a current of warm fresh air (7 days, 40° C.).
The samples prepared in this way were then placed on an agar nutrient medium, and both samples and nutrient medium were contaminated with fungal spores. After 2-3 weeks storage (29±1° C., 80-90% rel. atmospheric humidity), the samples were compared.
The coating is considered to be permanently mold-resistant if the sample remains free from fungus or at most a slight border infestation can be detected.
For the contamination, fungal spores of the following mold fungi were used, which are known as paint destroyers or are frequently encountered on coatings: • Alternaria tenuis • Aspergillus flavus • Aspergillus niger • Aspergillus ustus • Cindosporum herbarum • Paecilomyces variotii • Penicillium citrium • Aureobasidium pullulans • Stachybotrys chartarum
Recipe A: Exterior dispersion paint based on Acroal 290 D (styrene acrylate)

SMILES	Minimum inhibitory concentrations Penicillium brevicaule [1]	Minimum inhibitory concentrations Chaetomium globosum [2]	Minimum inhibitory concentrations Aspergillus niger [3]	Mold resistance of coating [4]
COc1ccc(SC2=NCC(C)CS2)cc1 (centres unmarked) [Example 1]	<100 ppm	<100 ppm	<200 ppm	–
CC1(C)CCSC(Sc2ccc(Cl)cc2)=N1 [Example 61]	–	200 ppm	–	–
c1csc(SC2=NC3CCCC3CS2)c1 (centres unmarked) [Example 79]	100 ppm	<100 ppm	–	–
CC1CN=C(Sc2ccccc2)SC1 (centres unmarked) [Example 11]	<50 ppm	<50 ppm	<50 ppm	–
COc1cccc(SC2=NCCC(C)S2)c1 (centres unmarked) [Example 67]	<100 ppm	<100 ppm	<200 ppm	–
c1ccc(SC2=NC3CCCC3CS2)cc1 (centres unmarked) [Example 81]	200 ppm	<100 ppm	–	–
CC1CCN=C(Sc2ccccc2)S1 (centres unmarked) [Example 62]	<50 ppm	<100 ppm	<100 ppm	–
CC1CN=C(Sc2ccc(Cl)cc2)SC1 (centres unmarked) [Example 6]	20 ppm	20 ppm	50 ppm	–
CC1(C)CN=C(Sc2cccs2)SC1 [Example 45]	<50 ppm	<50 ppm	<200 ppm	–
CC1(C)CN=C(Sc2cccc(F)c2)SC1 [Example 51]	<200 ppm	<200 ppm	200 ppm	–
COc1ccc(SC2=NC3CCCCC3CS2)cc1 (centres unmarked) [Example 4]	–	100 ppm	–	–
Cc1ccc(SC2=NC3CCCC3CS2)cc1 (centres unmarked) [Example 82]	–	100 ppm	–	–
COc1ccc(SC2=NCC(C)(C)CS2)cc1 [Example 47]	–	–	–	mold resistant
